Data published in ChEMBL document CHEMBL2094260, “Malaria Box Tuberculosis Screening Data”.
≈ marks a conversion by molar mass, not a printed value.

test system: not listed separately; test: MMV: Cytotoxicity CRC and LD50 against HepG2; format: toxicity, cell-based; conditions: human, HepG2 cells; read-out: LD50 (the source's name)

Point of comparison: `CCOc1ccc2nc(C)cc(Nc3ccc(Br)cc3)c2c1`, CC50 3.95 µM. Against it:
- COc1ccc(Nc2nc(NCc3ccccc3)c3ccccc3n2)cc1 — 1.5-fold lower, 2.59 µM
- O=C(Nc1cccc(C(F)(F)F)c1)c1cc(Cl)ccc1O — 4-fold lower, 0.99 µM
- CC(=O)c1ccc(NC(=O)CSc2nc(-c3ccccc3Cl)ns2)cc1 — 10-fold higher, 41 µM
- c1ccc(CNc2nc(Nc3ccccc3)nc3ccccc23)cc1 — within 1.5-fold, 4.16 µM
- Cc1cc(NCCN2CCCCC2)c2ccc3ccccc3c2n1 — 1.9-fold lower, 2.04 µM
- CSc1ccccc1C(=O)Nc1nc(-c2ccccn2)cs1 — 3.1-fold higher, 12.1 µM
- Nc1ccc(-c2nc3cc(Oc4ccc(Oc5ccc6[nH]c(-c7ccc(N)cc7)nc6c5)cc4)ccc3[nH]2)cc1 — within 1.5-fold, 5.37 µM
- Cc1ccc2c(C)nc(Nc3nc(C)cc(-c4ccccc4)n3)nc2c1 — higher, > 100 µM
- OCCNc1nc(Nc2ccc(Cl)c(Cl)c2)nc2ccccc12 — 1.8-fold higher, 7.18 µM
- CCCCCn1c(=N)n(CC(O)COc2cccc(C)c2)c2ccccc21 (stereo not given) — within 1.5-fold, 4.92 µM
- Cc1ccc(NC(=O)Nc2cccc(Cl)c2)cc1F — 2.8-fold higher, 11.1 µM
- Cc1ccc2cc3c(N)c4c(C)ccc(C)c4nc3nc2c1 — within 1.5-fold, 2.84 µM
- CCOc1ccc2nc(C)cc(Nc3ccc(N(C)C)cc3)c2c1 — 1.9-fold higher, 7.38 µM

test system: Mycobacterium tuberculosis; test: MMV: CRC and MIC90 against Mtb (non replicating); format: functional; conditions: not given

Point of comparison: `Cc1ccc2c(C)nc(Nc3nc(C)cc(-c4ccccc4)n3)nc2c1`, MIC90 57.9 µM (≈ 19.8 µg/mL). Against it:
- COc1ccc(Nc2nc(NCc3ccccc3)c3ccccc3n2)cc1 — within 1.5-fold, 48.7 µM (≈ 17.4 µg/mL)
- O=C(Nc1cccc(C(F)(F)F)c1)c1cc(Cl)ccc1O — 17-fold lower, 3.46 µM (≈ 1.09 µg/mL)
- CC(=O)c1ccc(NC(=O)CSc2nc(-c3ccccc3Cl)ns2)cc1 — higher, > 100 µM
- c1ccc(CNc2nc(Nc3ccccc3)nc3ccccc23)cc1 — within 1.5-fold, 39.4 µM (≈ 12.9 µg/mL)
- Cc1cc(NCCN2CCCCC2)c2ccc3ccccc3c2n1 — higher, > 100 µM
- CSc1ccccc1C(=O)Nc1nc(-c2ccccn2)cs1 — within 1.5-fold, 79 µM (≈ 25.9 µg/mL)
- CCOc1ccc2nc(C)cc(Nc3ccc(Br)cc3)c2c1 — higher, > 100 µM
- Nc1ccc(-c2nc3cc(Oc4ccc(Oc5ccc6[nH]c(-c7ccc(N)cc7)nc6c5)cc4)ccc3[nH]2)cc1 — higher, > 100 µM
- OCCNc1nc(Nc2ccc(Cl)c(Cl)c2)nc2ccccc12 — 2.9-fold lower, 20.2 µM (≈ 7.05 µg/mL)
- CCCCCn1c(=N)n(CC(O)COc2cccc(C)c2)c2ccccc21 (stereo not given) — higher, > 100 µM
- Cc1ccc(NC(=O)Nc2cccc(Cl)c2)cc1F — higher, > 100 µM
- Cc1ccc2cc3c(N)c4c(C)ccc(C)c4nc3nc2c1 — higher, > 100 µM
- CCOc1ccc2nc(C)cc(Nc3ccc(N(C)C)cc3)c2c1 — within 1.5-fold, 67.4 µM (≈ 21.7 µg/mL)

test system: Mycobacterium tuberculosis; test: MMV: Screen against Mtb, single point, non replicating, at 25uM; format: functional; conditions: not given

Point of comparison: `CCOc1ccc2nc(C)cc(Nc3ccc(Br)cc3)c2c1`, inhibition at 25 µM 11.1%. Against it:
- COc1ccc(Nc2nc(NCc3ccccc3)c3ccccc3n2)cc1 — higher, 53.9%
- O=C(Nc1cccc(C(F)(F)F)c1)c1cc(Cl)ccc1O — higher, 102%
- CC(=O)c1ccc(NC(=O)CSc2nc(-c3ccccc3Cl)ns2)cc1 — higher, 13.4%
- c1ccc(CNc2nc(Nc3ccccc3)nc3ccccc23)cc1 — higher, 21.2%
- Cc1cc(NCCN2CCCCC2)c2ccc3ccccc3c2n1 — higher, 15.5%
- CSc1ccccc1C(=O)Nc1nc(-c2ccccn2)cs1 — higher, 66.8%
- Nc1ccc(-c2nc3cc(Oc4ccc(Oc5ccc6[nH]c(-c7ccc(N)cc7)nc6c5)cc4)ccc3[nH]2)cc1 — higher, 11.8%
- Cc1ccc2c(C)nc(Nc3nc(C)cc(-c4ccccc4)n3)nc2c1 — higher, 24.2%
- OCCNc1nc(Nc2ccc(Cl)c(Cl)c2)nc2ccccc12 — higher, 84.5%
- CCCCCn1c(=N)n(CC(O)COc2cccc(C)c2)c2ccccc21 (stereo not given) — lower, 8.77%
- Cc1ccc(NC(=O)Nc2cccc(Cl)c2)cc1F — higher, 19.7%
- Cc1ccc2cc3c(N)c4c(C)ccc(C)c4nc3nc2c1 — lower, 7.35%
- CCOc1ccc2nc(C)cc(Nc3ccc(N(C)C)cc3)c2c1 — higher, 15.7%

test system: Mycobacterium tuberculosis; test: MMV: Screen against Mtb, single point, replicating, at 25uM; format: functional; conditions: not given

Point of comparison: `CSc1ccccc1C(=O)Nc1nc(-c2ccccn2)cs1`, inhibition at 25 µM 68.2%. Against it:
- COc1ccc(Nc2nc(NCc3ccccc3)c3ccccc3n2)cc1 — higher, 98%
- O=C(Nc1cccc(C(F)(F)F)c1)c1cc(Cl)ccc1O — higher, 95.9%
- CC(=O)c1ccc(NC(=O)CSc2nc(-c3ccccc3Cl)ns2)cc1 — higher, 96.2%
- c1ccc(CNc2nc(Nc3ccccc3)nc3ccccc23)cc1 — higher, 96.2%
- Cc1cc(NCCN2CCCCC2)c2ccc3ccccc3c2n1 — higher, 71.1%
- CCOc1ccc2nc(C)cc(Nc3ccc(Br)cc3)c2c1 — higher, 95.7%
- Nc1ccc(-c2nc3cc(Oc4ccc(Oc5ccc6[nH]c(-c7ccc(N)cc7)nc6c5)cc4)ccc3[nH]2)cc1 — higher, 98.8%
- Cc1ccc2c(C)nc(Nc3nc(C)cc(-c4ccccc4)n3)nc2c1 — higher, 96.8%
- OCCNc1nc(Nc2ccc(Cl)c(Cl)c2)nc2ccccc12 — higher, 94%
- CCCCCn1c(=N)n(CC(O)COc2cccc(C)c2)c2ccccc21 (stereo not given) — higher, 96.5%
- Cc1ccc(NC(=O)Nc2cccc(Cl)c2)cc1F — higher, 80.7%
- Cc1ccc2cc3c(N)c4c(C)ccc(C)c4nc3nc2c1 — higher, 101%
- CCOc1ccc2nc(C)cc(Nc3ccc(N(C)C)cc3)c2c1 — higher, 78%

test system: Mycobacterium tuberculosis; test: MMV: CRC and MIC90 against Mtb (replicating); format: functional; conditions: not given

Point of comparison: `O=C(Nc1cccc(C(F)(F)F)c1)c1cc(Cl)ccc1O`, MIC90 3.87 µM (≈ 1.22 µg/mL). Against it:
- COc1ccc(Nc2nc(NCc3ccccc3)c3ccccc3n2)cc1 — 1.9-fold higher, 7.33 µM (≈ 2.61 µg/mL)
- CC(=O)c1ccc(NC(=O)CSc2nc(-c3ccccc3Cl)ns2)cc1 — 3.6-fold higher, 14 µM (≈ 5.65 µg/mL)
- c1ccc(CNc2nc(Nc3ccccc3)nc3ccccc23)cc1 — 1.9-fold higher, 7.46 µM (≈ 2.43 µg/mL)
- Cc1cc(NCCN2CCCCC2)c2ccc3ccccc3c2n1 — 10-fold higher, 39.1 µM (≈ 12.5 µg/mL)
- CSc1ccccc1C(=O)Nc1nc(-c2ccccn2)cs1 — 13-fold higher, 51.2 µM (≈ 16.8 µg/mL)
- CCOc1ccc2nc(C)cc(Nc3ccc(Br)cc3)c2c1 — 4.8-fold higher, 18.7 µM (≈ 6.68 µg/mL)
- Nc1ccc(-c2nc3cc(Oc4ccc(Oc5ccc6[nH]c(-c7ccc(N)cc7)nc6c5)cc4)ccc3[nH]2)cc1 — 5-fold higher, 19.2 µM (≈ 10.1 µg/mL)
- Cc1ccc2c(C)nc(Nc3nc(C)cc(-c4ccccc4)n3)nc2c1 — 4.8-fold higher, 18.6 µM (≈ 6.35 µg/mL)
- OCCNc1nc(Nc2ccc(Cl)c(Cl)c2)nc2ccccc12 — within 1.5-fold, 3.59 µM (≈ 1.25 µg/mL)
- CCCCCn1c(=N)n(CC(O)COc2cccc(C)c2)c2ccccc21 (stereo not given) — 5.9-fold higher, 23 µM (≈ 8.45 µg/mL)
- Cc1ccc(NC(=O)Nc2cccc(Cl)c2)cc1F — 7.4-fold higher, 28.8 µM (≈ 8.03 µg/mL)
- Cc1ccc2cc3c(N)c4c(C)ccc(C)c4nc3nc2c1 — 1.6-fold higher, 6.06 µM (≈ 1.74 µg/mL)
- CCOc1ccc2nc(C)cc(Nc3ccc(N(C)C)cc3)c2c1 — 9.9-fold higher, 38.3 µM (≈ 12.3 µg/mL)
